Assay results published in ChEMBL document CHEMBL3044950, “Insecticidal activity of Paraherquamides, including paraherquamide H and paraherquamide I, two new alkaloids isolated from Penicillium cluniae” (2006).

Each compound was assayed on Oncopeltus fasciatus (assay: Insecticidal activity against Oncopeltus fasciatus fourth-instar nymphs assessed as induction of insect mortality after compound topical application measured 72 hr post compound application).
Assay type: functional

In order of rising LD50:
1. C[C@H]1CCN2C[C@]34C[C@@]5(C(=O)Nc6c5ccc5c6OC=CC(C)(C)O5)C(C)(C)[C@@H]3C[C@]12C(=O)N4C [PARAHERQUAMIDE E]  0.089 µg
2. CN1C(=O)[C@]23C[C@@H]4C(C)(C)[C@@]5(C[C@@]41CN2CC[C@@]3(C)O)C(=O)Nc1c5ccc2c1OC=CC(C)(C)O2 [Paraherquamide A]  0.32 µg
3. CN1C(=O)[C@]23C[C@H]4C(C)(C)[C@@]5(C[C@@]41CN2C(=O)C[C@@]3(C)O)C(=O)Nc1c5ccc2c1OC=CC(C)(C)O2  0.91 µg
4. CN1C(=O)[C@]23C[C@H]4C(C)(C)[C@@]5(C[C@@]41C[N+]2([O-])CC[C@@]3(C)O)C(=O)Nc1c5ccc2c1OC=CC(C)(C)O2 (stereo not given in full) [N-OXIDE PARAHERQUAMIDE]  7.01 µg
5. CN1C(=O)[C@@]23CCCN2C[C@@]12C[C@@]1(C(=O)Nc4c1ccc1c4OC=CC(C)(C)O1)C(C)(C)[C@@H]2C3 [PARAHERQUAMIDE B]  16.54 µg
